System: osteophytes in the DMM joint
Experiment: Micro-CT total knee osteophyte volume in DMM mice
Format: in vivo, mouse
Procedure: Mice (C57BL/6J) were purchased from The Jackson Laboratory. All mice were housed on a 12-hour light/dark cycle with unrestricted access to standard mouse food and water. The DMM model of injury induced OA was performed on mice at 12 weeks of age by opening the joint capsule and transecting the medial meniscotibial ligament in the right knee, destabilizing the medial meniscus(48). A sham operation was performed on the left knee of each mouse by observing the medial meniscotibial ligament but not transecting it. Mice were administered carprofen 5 mg/kg (Zoetis; 1041283) subcutaneously 30 minutes prior to surgery, immediately post-surgery, and 24 hours post-surgery to minimize pain.
Treatments were initiated either 1 day after DMM surgery once a week for 8 weeks, or 1 month after DMM surgery twice a week for 4 weeks. Mice were sacrificed at 20 weeks of age (2 months after surgery). To understand the level of articular cartilage damage 1 month after DMM surgery, a cohort of mice was sacrificed at 16 weeks old (FIG. 4).
Dissected knee joints underwent Micro-CT analysis using the Skyscan 1172 in vivo μCT scanner (Bruker micro-CT, Kontich, Belgium) at 55 kV and 181 μA, with a resolution of 10 μm. […] Average osteophyte volume was analyzed with Prism 9 Software (GraphPad) using two-way ANOVA and Tukey's multiple comparisons test post-hoc. […]

## COc1cc(-c2cc(-c3ccc(N4CCNCC4)cc3)cnc2C)cc(OC)c1OC [LDN-214117]
Applied after a 1-month delay
  osteophyte volume (MicroCT): significant reduction in osteophyte volume
Treated immediately after surgery, compared to vehicle, week 8
  osteophyte volume (MicroCT): reduced osteophyte volume

From patent US20260234217A1, “USE OF BMP RECEPTOR ALK1 INHIBITORS IN OSTEOARTHRITIS THERAPIES” (The Regents of the University of California, priority 2023, published 2026)
